Structures are written as SMILES.

The first experiment concerns Lox-IMVI melanoma cell line. Briefly: Lox-IMVI anti-proliferative assay (growth inhibition, Cell Titer-Glo). The experiment is classed as cell-based, human. The following applies: Homo sapiens; IC50 activity level in the cell-based Lox-IMVI anti-proliferative assay; read-out: Activity. In short, it runs like this:
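IC50 values reflect the concentration giving 50% of DMSO-control luminescence after 72 h of treatment, fitted with a four-parameter logistic model. Cells were cultured in RPMI + 10% FBS with compound from 0.5 nM to 10 μM.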
Turning to `C[C@@H]1CC[C@@H](Nc2ncc3nc(Nc4c(F)cccc4Cl)n([C@H]4CC[C@@H](C(N)=O)CC4)c3n2)C[C@H]1O` [Example 342, (1S,4s)-4-(8-(2-chloro-6-fluorophenylamino)-2-((1R,3R,4R)-3-hydroxy-4-methylcyclohexylamino)-9H-purin-9-yl)cyclohexanecarboxamide], the IC50 was more than 1 µM. For `NC(=O)[C@H]1CC[C@@H](n2c(Nc3c(F)cccc3F)nc3cnc(NC4CC(F)(F)C4)nc32)CC1` [Example 227, (1s,4s)-4-(2-(3,3-difluorocyclobutylamino)-8-(2,6-difluorophenylamino)-9H-purin-9-yl)cyclohexanecarboxamide], the IC50 was more than 1 µM. As for `NC(=O)[C@H]1CC[C@@H](n2c(Nc3c(Cl)cc(Cl)cc3Cl)nc3cnc(N[C@@H]4CCC[C@H](O)C4)nc32)CC1` [Example 353, (1S,4s)-4-(2-((1R,3S)-3-hydroxycyclohexylamino)-8-(2,4,6-trichlorophenylamino)-9H-purin-9-yl)cyclohexanecarboxamide], the IC50 was 0.25 to 0.5 µM. On the same count and under the same terms, the same measure for `NC(=O)[C@H]1CC[C@@H](n2c(Nc3c(Cl)cc(F)cc3Cl)nc3cnc(N[C@H]4CCOC4)nc32)CC1` [Example 243, (1R,4s)-4-(8-(2,6-dichloro-4-fluorophenylamino)-2-((S)-tetrahydrofuran-3-ylamino)-9H-purin-9-yl)cyclohexanecarboxamide]: 0.5 to 1 µM; for `NC(=O)[C@H]1CC[C@@H](n2c(Nc3c(Cl)cccc3Cl)nc3cnc(N[C@H]4C[C@H](O)C4)nc32)CC1` [Example 280, (1s,4s)-4-(8-(2,6-dichlorophenylamino)-2-((1r,3r)-3-hydroxycyclobutylamino)-9H-purin-9-yl)cyclohexanecarboxamide]: more than 1 µM.

Take `NC(=O)[C@H]1CC[C@@H](n2c(Nc3c(Cl)cc(Cl)cc3Cl)nc3cnc(NCC4CCC4)nc32)CC1` [Example 110, (1s,4s)-4-(2-(cyclobutylmethylamino)-8-(2,4,6-trichlorophenylamino)-9H-purin-9-yl)cyclohexanecarboxamide]: the IC50 lay within 0.5 to 1 µM. With `NC(=O)[C@H]1CC[C@@H](n2c(Nc3c(F)cc(Cl)cc3F)nc3cnc(N[C@H]4C[C@H](O)C4)nc32)CC1` [Example 283, (1s,4s)-4-(8-(4-chloro-2,6-difluorophenylamino)-2-((1r,3r)-3-hydroxycyclobutylamino)-9H-purin-9-yl)cyclohexanecarboxamide], the IC50 was more than 1 µM.

Consider `NC(=O)[C@H]1CC[C@@H](n2c(Nc3c(F)cc(Cl)cc3Cl)nc3cnc(N[C@@H]4CCC[C@H]4O)nc32)CC1` [Example 255, (1S,4s)-4-(8-(2,4-dichloro-6-fluorophenylamino)-2-((1R,2R)-2-hydroxycyclopentylamino)-9H-purin-9-yl)cyclohexanecarboxamide], for which the IC50 is more than 1 µM.

`NC(=O)[C@H]1CC[C@@H](n2c(Nc3c(F)cc(Cl)cc3F)nc3cnc(NC4CCC(F)(F)CC4)nc32)CC1` [Example 200, (1s,4s)-4-(8-(4-chloro-2,6-difluorophenylamino)-2-(4,4-difluorocyclohexylamino)-9H-purin-9-yl)cyclohexanecarboxamide]: the IC50 was in the range of 0.25 to 0.5 µM. As for `CC[C@@H](CO)Nc1ncc2nc(Nc3c(Cl)cc(F)cc3Cl)n([C@H]3CC[C@@H](C(N)=O)CC3)c2n1` [Example 145, (1R,4s)-4-(8-(2,6-dichloro-4-fluorophenylamino)-2-((S)-1-hydroxybutan-2-ylamino)-9H-purin-9-yl)cyclohexanecarboxamide], the IC50 is more than 1 µM. Consider `NC(=O)[C@H]1CC[C@@H](n2c(Nc3c(Cl)cc(F)cc3Cl)nc3cnc(N[C@H]4CCCOC4)nc32)CC1` [Example 202, (1R,4s)-4-(8-(2,6-dichloro-4-fluorophenylamino)-2-((S)-tetrahydro-2H-pyran-3-ylamino)-9H-purin-9-yl)cyclohexanecarboxamide], for which the IC50 was more than 1 µM.

The experiment is the same for the next values; noted with them: Homo sapiens; Lox-IMVI anti-proliferative assay, IC50 activity level; read-out: Activity.
In the case of `C[C@]1(C(N)=O)CC[C@@H](n2c(Nc3c(F)cc(Cl)cc3Cl)nc3cnc(NC4CCC(F)(F)CC4)nc32)CC1` [Example 528, (1s,4s)-4-(8-(2,4-dichloro-6-fluorophenylamino)-2-(4,4-difluorocyclohexylamino)-9H-purin-9-yl)-1-methylcyclohexanecarboxamide], the IC50 was less than 0.25 µM. Take `C[C@H]1COCC[C@H]1Nc1ncc2nc(Nc3c(F)cc(Cl)cc3Cl)n([C@H]3CC[C@@H](C(N)=O)CC3)c2n1` [Example 505, (1S,4s)-4-(8-(2,4-dichloro-6-fluorophenylamino)-2-((3R,4R)-3-methyltetrahydro-2H-pyran-4-ylamino)-9H-purin-9-yl)cyclohexanecarboxamide]: the IC50 was 0.25 to 0.5 µM. As to `C[C@]1(C(N)=O)CC[C@H](n2c(Nc3c(F)cc(C#N)cc3Cl)nc3cnc(NC4CCCC4)nc32)CC1` [Example 486, (1r,4r)-4-(8-(2-chloro-4-cyano-6-fluorophenylamino)-2-(cyclopentylamino)-9H-purin-9-yl)-1-methylcyclohexanecarboxamide], the IC50 fell in the range of 0.5 to 1 µM. As to `N#Cc1cc(F)c(Nc2nc3cnc(N[C@@H]4CCOC4)nc3n2[C@H]2CC[C@@H](C(N)=O)CC2)c(Cl)c1` [Example 520, (1S,4s)-4-(8-(2-chloro-4-cyano-6-fluorophenylamino)-2-((R)-tetrahydrofuran-3-ylamino)-9H-purin-9-yl)cyclohexanecarboxamide], the IC50 lay within 0.25 to 0.5 µM. On the same count and under the same terms, with `C[C@]1(O)CCC[C@@H](Nc2ncc3nc(Nc4c(Cl)cc(F)cc4Cl)n([C@H]4CC[C@@H](C(N)=O)CC4)c3n2)C1` [Example 428, (1S,4s)-4-(8-(2,6-dichloro-4-fluorophenylamino)-2-((1R,3S)-3-hydroxy-3-methylcyclohexylamino)-9H-purin-9-yl)cyclohexanecarboxamide] the figure was more than 1 µM. `NC(=O)[C@H]1CC[C@@H](n2c(Nc3c(F)cc(Cl)cc3F)nc3cnc(N[C@@H]4CCCC[C@H]4O)nc32)CC1` [Example 467, (1S,4s)-4-(8-(4-chloro-2,6-difluorophenylamino)-2-((1R,2R)-2-hydroxycyclohexylamino)-9H-purin-9-yl)cyclohexanecarboxamide]: the IC50 was more than 1 µM.

Consider `C[C@]1(C(N)=O)CC[C@@H](n2c(Nc3c(Cl)cc(C(F)(F)F)cc3Cl)nc3cnc(NC4CCCC4)nc32)CC1` [Example 562, (1s,4s)-4-(2-(cyclopentylamino)-8-(2,6-dichloro-4-(trifluoromethyl)phenylamino)-9H-purin-9-yl)-1-methylcyclohexanecarboxamide], for which the IC50 is more than 1 µM. `C[C@]1(O)CCC[C@@H](Nc2ncc3nc(Nc4c(F)cc(Cl)cc4F)n([C@H]4CC[C@@H](C(N)=O)CC4)c3n2)C1` [Example 426, (1S,4s)-4-(8-(4-chloro-2,6-difluorophenylamino)-2-((1R,3S)-3-hydroxy-3-methylcyclohexylamino)-9H-purin-9-yl)cyclohexanecarboxamide]: the IC50 was more than 1 µM. With `NC(=O)[C@H]1CC[C@@H](n2c(Nc3c(Cl)cccc3Cl)nc3cnc(N[C@@H]4CCC[C@@H](O)C4)nc32)CC1` [Example 417, (1S,4s)-4-(8-(2,6-dichlorophenylamino)-2-((1R,3R)-3-hydroxycyclohexylamino)-9H-purin-9-yl)cyclohexanecarboxamide], the IC50 was more than 1 µM. Consider `C[C@]1(O)CCC[C@@H](Nc2ncc3nc(Nc4c(F)cc(Cl)cc4Cl)n([C@H]4CC[C@@H](C(N)=O)CC4)c3n2)C1` [Example 427, (1S,4s)-4-(8-(2,4-dichloro-6-fluorophenylamino)-2-((1R,3S)-3-hydroxy-3-methylcyclohexylamino)-9H-purin-9-yl)cyclohexanecarboxamide], for which the IC50 lay within 0.5 to 1 µM.

The same experiment, now with this note: Homo sapiens; Lox-IMVI anti-proliferative assay, cell-based; read-out: Activity (IC50 activity level).
On to `CC(=O)N1CCC[C@@H](Nc2ncc3nc(Nc4c(Cl)cc(F)cc4Cl)n([C@H]4CC[C@@H](C(N)=O)CC4)c3n2)C1` [Example 799, (1S,4s)-4-(2-((R)-1-acetylpiperidin-3-ylamino)-8-(2,6-dichloro-4-fluorophenylamino)-9H-purin-9-yl)cyclohexanecarboxamide], for which the IC50 is more than 1 µM.

Still in this experiment, the particulars now being: Homo sapiens; Lox-IMVI melanoma cell line, anti-proliferative assay; read-out: Activity (IC50 activity level).
In the case of `NC(=O)[C@H]1CC[C@@H](n2c(Nc3c(F)cc(F)cc3Cl)nc3cnc(N[C@@H]4CCCN(c5ccccc5)C4)nc32)CC1` [Example 742, (1S,4s)-4-(8-(2-chloro-4,6-difluorophenylamino)-2-((R)-1-phenylpiperidin-3-ylamino)-9H-purin-9-yl)cyclohexanecarboxamide], the IC50 is more than 1 µM. The same measure, in the same setting: with `C[C@]1(C(N)=O)CC[C@@H](n2c(Nc3c(Cl)cc(Cl)cc3Cl)nc3cnc(N[C@@H]4CCOC[C@H]4F)nc32)CC1` [Example 718, (1S,4s)-4-(2-((3S,4R)-3-fluorotetrahydro-2H-pyran-4-ylamino)-8-(2,4,6-trichlorophenylamino)-9H-purin-9-yl)-1-methylcyclohexanecarboxamide] the figure was less than 0.25 µM. As to `C[C@]1(C(N)=O)CC[C@@H](n2c(Nc3c(F)cc(Cl)cc3F)nc3cnc(N[C@H]4CCOC[C@H]4F)nc32)CC1` [Example 721, (1R,4s)-4-(8-(4-chloro-2,6-difluorophenylamino)-2-((3S,4S)-3-fluorotetrahydro-2H-pyran-4-ylamino)-9H-purin-9-yl)-1-methylcyclohexanecarboxamide], the IC50 was less than 0.25 µM. In the case of `NC(=O)[C@H]1CC[C@@H](n2c(Nc3c(F)cc(Cl)cc3F)nc3cnc(N[C@@H]4CCCN(Cc5ccccc5)C4)nc32)CC1` [Example 757, (1S,4s)-4-(2-((R)-1-benzylpiperidin-3-ylamino)-8-(4-chloro-2,6-difluorophenylamino)-9H-purin-9-yl)cyclohexanecarboxamide], the IC50 was more than 1 µM. As for `C[C@]1(C(N)=O)CC[C@@H](n2c(Nc3c(F)cc(Cl)cc3Cl)nc3cnc(N[C@@H]4CCOC[C@H]4F)nc32)CC1` [Example 726, (1S,4s)-4-(8-(2,4-dichloro-6-fluorophenylamino)-2-((3S,4R)-3-fluorotetrahydro-2H-pyran-4-ylamino)-9H-purin-9-yl)-1-methylcyclohexanecarboxamide], the IC50 is less than 0.25 µM.

The record behind these values is patent publication US11590139B2, “Substituted aminopurine compounds, compositions thereof, and methods of treatment therewith” (Signal Pharmaceuticals, LLC, priority 2014, dated 2023).
